Results on 18 compounds are retold here after ChEMBL document CHEMBL5375963, “Discovery of a First-in-Class Small-Molecule Ligand for WDR91 Using DNA-Encoded Chemical Library Selection Followed by Machine Learning” (J Med Chem, 2023).

Experiment [1] has as its target T1, WD repeat-containing protein 91 (Homo sapiens, UniProt A4D1P6).
T1 sequence (A4D1P6 whole entry): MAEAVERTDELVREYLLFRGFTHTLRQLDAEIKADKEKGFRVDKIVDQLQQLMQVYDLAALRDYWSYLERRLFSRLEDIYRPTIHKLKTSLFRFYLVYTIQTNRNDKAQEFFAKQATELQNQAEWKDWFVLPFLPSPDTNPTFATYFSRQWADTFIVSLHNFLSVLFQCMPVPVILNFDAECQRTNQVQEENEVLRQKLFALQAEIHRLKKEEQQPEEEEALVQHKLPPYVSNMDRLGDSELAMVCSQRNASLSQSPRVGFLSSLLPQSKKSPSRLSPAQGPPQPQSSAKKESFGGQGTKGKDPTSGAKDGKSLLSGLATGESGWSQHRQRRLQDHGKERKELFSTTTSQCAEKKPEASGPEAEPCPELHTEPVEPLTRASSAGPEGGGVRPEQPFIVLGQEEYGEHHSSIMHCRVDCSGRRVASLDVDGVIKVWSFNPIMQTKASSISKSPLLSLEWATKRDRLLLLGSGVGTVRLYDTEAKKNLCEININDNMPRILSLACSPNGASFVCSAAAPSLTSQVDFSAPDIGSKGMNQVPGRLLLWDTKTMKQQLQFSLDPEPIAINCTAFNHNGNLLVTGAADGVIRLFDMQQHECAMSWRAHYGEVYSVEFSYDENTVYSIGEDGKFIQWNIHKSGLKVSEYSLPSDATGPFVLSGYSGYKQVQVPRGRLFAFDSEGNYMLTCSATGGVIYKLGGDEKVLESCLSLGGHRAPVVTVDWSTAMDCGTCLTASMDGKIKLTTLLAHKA
As to the kind of experiment: (§1) Binding affinity to C-terminal His6-tagged truncated WDR91 (unknown origin) (P392 to A747 residues) expressed in baculovirus-infected Sf9 cells assessed as dissociation constant incubated for 72 to 96 hrs by SPR analysis. In general terms: SPR reads the build-up and loss of mass on a sensor chip optically.

Experiment [2] has as its target T2, WD repeat-containing protein 91 (Homo sapiens) (UniProt A4D1P6).
T2 sequence (whole entry): T1 sequence (A4D1P6 whole entry)
Description: Binding affinity to C-terminal His6-tagged truncated WDR91 (unknown origin) (P392 to A747 residues) expressed in baculovirus-infected Sf9 cells assessed as covalent adduct formation incubated for 2 hrs by LC-MS analysis.

For experiment [3], the target named is T2, WD repeat-containing protein 91 (Homo sapiens). Described as §1. Conditions: time 72-96 hrs.
Experiment [4] shares this target. Description: Binding affinity to C-terminal His6-tagged truncated WDR91 (unknown origin) (P392 to A747 residues) expressed in baculovirus-infected Sf9 cells assessed as maximum response incubated for 2 hrs relative to control.
For experiment [5] the target is unchanged. Description: Binding affinity to C-terminal His6-tagged truncated WDR91 (unknown origin) (P392 to A747 residues) expressed in baculovirus-infected Sf9 cells assessed as thermal stabilization by measuring change in melting temperature incubated for 2 hrs by differential scanning fluorimetry analysis.

Active and inactive are the calls of the source. The rule behind the calls is not given here.

As to `O=C(NC1(c2ccc(Cl)cc2)COC1)c1ccc2snnc2c1`, the Kd in experiment [1] was determined as 14 µM. In the case of `C=CC(=O)Nc1ccc(CC(=O)NC2(c3ccccc3)COC2)cc1`, the outcome in experiment [2] and in experiment [3] was inactive. For the same compound, the Rmax entry in experiment [4] is “inactive”.

As to `O=C(NC1(c2ccc(Cl)cc2)COC1)c1ccc(CN2CCCC2=O)cc1`, the Kd in experiment [1] is 11 µM. For `Nc1ncnc2ccc(C(=O)NC3(c4ccc(Cl)cc4)COC3)cc12`, the dissociation constant Kd in experiment [1] came to 42 µM.

`C=CC(=O)N1CCCc2c(C(=O)NC(c3ccc(Cl)cc3)C3CC3)cccc21` (stereo not drawn): the outcome in experiment [2] was Active. Also, in experiment [5], the ΔTm came out at 4 °C. Also, in experiment [1], the dissociation constant (Kd) worked out at 43 µM. Besides, the Rmax in experiment [4] was found to be 54%.

In the case of `CC(=O)NCc1ccc(C(=O)NC2(c3ccc(Cl)cc3)COC2)cc1`, the dissociation constant Kd in experiment [1] is 97 µM.

Take `O=C1Cc2c(cccc2C(=O)NC2(c3ccc(Cl)cc3)COC2)N1`: the dissociation constant Kd in experiment [1] turned out to be 22 µM. Regarding `C=CC(=O)N1CCCc2c(C(=O)NC(c3ccc(F)cc3)C3CCCCC3)cccc21` (stereo not drawn), the result in experiment [2] and in experiment [3] was inactive. Moreover, the Rmax result in experiment [4] is “inactive”. With `Cc1cn2cc(C(=O)NC3(c4ccc(Cl)cc4)COC3)sc2n1`, the dissociation constant (Kd) in experiment [1] worked out at 11 µM. For `C=CC(=O)N1CCCc2c(C(=O)NC3(c4ccc(Cl)cc4)COC3)cccc21`, the result in experiment [2] was Active. Further, in experiment [5], the thermal shift (ΔTm) is 4 °C. The Kd in experiment [1] stood at 36 µM. Moreover, in experiment [4], the Rmax stood at 53%. For `NC(=O)C1CCCN(c2ccc(C(=O)NC(c3ccc(Cl)cc3)C3CC3)cc2)C1` (stereo not drawn), in experiment [1], the equilibrium dissociation constant (Kd) is 37 µM.

In the case of `NC(=O)C1CCCN(c2ccc(C(=O)NC(CCO)c3ccc(Cl)cc3)cc2)C1` (stereo not drawn), the Kd in experiment [1] is 14 µM.

In the case of `O=C(NC(CCO)c1ccc(Cl)cc1)c1ccc(N2CCC(O)C2)cc1` (stereo not drawn), the Kd in experiment [1] worked out at 15 µM.

`O=C(NC1(c2ccc(Cl)cc2)COC1)c1ccc(-c2cc[nH]n2)s1`: in experiment [1], the equilibrium dissociation constant (Kd) was 8 µM. As for `O=C(NC1(c2ccc(Cl)cc2)COC1)c1ccc(N2CCC(O)CC2)cc1`, the Kd in experiment [1] was 6 µM. The same measure, in the same setting: the same measure for `O=C(c1ccc(N2CCC(O)C2)cc1)N1CC(O)(c2ccc(Cl)cc2)C1` (stereo not drawn): 16 µM; for `O=C(NC(CCO)c1ccc(Cl)cc1)c1ccc(CN2CCCC2=O)cc1` (stereo not drawn): 99 µM. Take `O=C(NC1(c2ccc(Cl)cc2)COC1)c1ccc(C2(O)COC2)cc1`: the dissociation constant Kd in experiment [1] turned out to be 20 µM.

What is called Kd is the concentration at which binding is half-saturated. Usually ΔTm stands for the change in melting temperature against a reference sample.
